Test results reported in the supplement of paper PMC10307832.

Columns and labels:
Assay in all cases: relative viability (nuclei count vs DMSO), 5 days (fraction); higher = more cells survive
[1] = compound: Cc1ccccc1C(C(=O)NC1CCCCC1)N(C(=O)Cn1ccnc1C)c1cccc(F)c1 [IDH-C35] + COc1cc2c(Oc3ccc(NC(=O)C4(C(=O)Nc5ccc(F)cc5)CC4)cc3F)ccnc2cc1OCCCN1CCOCC1 [Foretinib] (partner 0.25 µM)
Procedure, shortened: (§1)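 Relative viability divides the nuclei count in treated wells by that in vehicle wells. Lung cancer cell lines were seeded in 1536-well plates, dosed by pin tool the next day, and fixed and stained after 5 days in one step with final 0.05% Triton X-100, 1% formaldehyde and 1 ug/ml Hoechst. Dosing was a single drug or a fixed anchor-drug dose plus five library-drug doses (not always all listed) in √10 steps, and values are medians of duplicate plates imaged at 4×.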

[2] = compound: Cc1ccccc1C(C(=O)NC1CCCCC1)N(C(=O)Cn1ccnc1C)c1cccc(F)c1 [IDH-C35] + CS(=O)(=O)N1CCN(Cc2cc3nc(-c4cccc5[nH]ncc45)nc(N4CCOCC4)c3s2)CC1 [Pictilisib] (partner 1 µM)
Procedure, shortened: as §1

[3] = compound: CC1=C(C(=NN1)C)CC2=C(C3=C(S2)N(C(=O)N(C3=O)C)CC(C)C)C(=O)N4C[C@@H](CO4)O + Cc1nc(Nc2ncc(C(=O)Nc3c(C)cccc3Cl)s2)cc(N2CCN(CCO)CC2)n1 [Dasatinib] (partner 0.075 µM)
Procedure, shortened: as §1

[4] = compound: Cc1ccccc1C(C(=O)NC1CCCCC1)N(C(=O)Cn1ccnc1C)c1cccc(F)c1 [IDH-C35] + CC(=O)Nc1cccc(-n2c(=O)n(C3CC3)c(=O)c3c(Nc4ccc(I)cc4F)n(C)c(=O)c(C)c32)c1 [Trametinib] (partner 0.02 µM)
Procedure, shortened: as §1

Cell Line | relative viability ([1]; first compound 0.08 µM) | relative viability ([1]; first compound 0.253 µM) | relative viability ([1]; first compound 0.8 µM) | relative viability ([1]; first compound 2.53 µM) | relative viability ([1]; first compound 8 µM) | relative viability ([2]; first compound 0.08 µM) | relative viability ([2]; first compound 0.253 µM) | relative viability ([2]; first compound 0.8 µM) | relative viability ([2]; first compound 2.53 µM) | relative viability ([2]; first compound 8 µM) | relative viability ([3]; first compound 0.0025 µM) | relative viability ([3]; first compound 0.007906 µM) | relative viability ([3]; first compound 0.025 µM) | relative viability ([3]; first compound 0.07906 µM) | relative viability ([3]; first compound 0.25 µM) | relative viability ([4]; first compound 0.08 µM) | relative viability ([4]; first compound 0.253 µM) | relative viability ([4]; first compound 0.8 µM) | relative viability ([4]; first compound 2.53 µM) | relative viability ([4]; first compound 8 µM)
NCI-H1703 | 0.321 | 0.335 | 0.334 | 0.367 | 0.348 | 0.235 | 0.264 | 0.285 | 0.262 | 0.206 | – | – | – | – | – | – | – | – | – | –
LCLC-103H | 0.795 | 0.717 | 0.85 | 0.754 | 0.736 | 0.7 | 0.62 | 0.536 | 0.715 | 0.603 | 0.669 | 0.493 | 0.489 | 0.357 | 0.513 | 0.704 | 0.672 | 0.727 | 0.656 | 0.7
PC-3 [JPC-3] | 1 | 1.01 | 1.05 | 1.11 | 0.982 | 0.802 | 0.772 | 0.687 | 0.844 | 0.703 | 1.06 | 0.939 | 0.94 | 0.908 | 0.975 | 0.65 | 0.745 | 0.725 | 0.758 | 0.67
BEN | 0.631 | 0.685 | 0.616 | 0.629 | 0.593 | 0.545 | 0.568 | 0.54 | 0.54 | 0.505 | 0.296 | 0.289 | 0.277 | 0.274 | 0.298 | 0.954 | 1.04 | 1.02 | 1.16 | 1.16
NCI-H1666 | 1.05 | 0.92 | 0.982 | 1.01 | 0.848 | 0.471 | 0.404 | 0.322 | 0.622 | 0.426 | 0.796 | 0.88 | 0.776 | 0.798 | 0.923 | 0.813 | 0.854 | 0.902 | 0.799 | 0.876
Calu-6 | 0.884 | 0.899 | 0.908 | 0.919 | 0.868 | 0.875 | 0.895 | 0.881 | 0.877 | 0.898 | – | – | – | – | – | – | – | – | – | –
NCI-H2342 | 0.969 | 1.02 | 1.17 | 1.16 | 1.01 | – | – | – | – | – | 0.297 | 0.348 | 0.283 | 0.322 | 0.352 | 0.771 | 0.762 | 0.769 | 0.767 | 0.736
EBC-1 | 0.0931 | 0.109 | 0.0986 | 0.108 | 0.109 | 0.397 | 0.414 | 0.339 | 0.353 | 0.377 | – | – | – | – | – | – | – | – | – | –
NCI-H1299 | 1.1 | 1.07 | 1.01 | 1.06 | 1.09 | 0.818 | 0.671 | 0.96 | 0.759 | 0.745 | – | – | – | – | – | – | – | – | – | –
NCI-H522 | – | – | – | – | – | – | – | – | – | – | 0.971 | 0.97 | 0.763 | 0.649 | 0.662 | 0.767 | 0.8 | 0.643 | 0.796 | 0.695
IA-LM | 1.06 | 1.24 | 1.12 | 1.12 | 1.1 | 0.381 | 0.382 | 0.33 | 0.325 | 0.322 | – | – | – | – | – | – | – | – | – | –
